Test results published in PMC9122897, “SHR1032, a novel STING agonist, stimulates anti-tumor immunity and directly induces AML apoptosis” (Scientific Reports, 2022).

What was measured:
cynomolgus PBMC = test: IFNβ ELISA; type: cell-based, cynomolgus monkey; settings: 5 h, vs ADU-S100
Protocol: Figure 2 SHR1032 specifically and potently activates STING signaling pathway. IRF luciferase reporter assays in (a) THP1-STING-R232, THP1-STING-H232, THP1-STING-HAQ, and THP1-STING-KO cells. Cells were stimulated for 24 h with the indicated STING compounds and assessed for luciferase activity. IFNβ production and activation of cGAS-STING signaling pathway in (b) human THP1-STING-R232, human PBMCs from a donor homozygous for the R232 variant, cynomolgus PBMC, and mouse RAW164.7 macrophage cells were treated with STING agonists for 5 h. IFNβ in media was quantified by human or mouse ELISA kits respectively. (c) THP1-STING-R232 cells and mouse RAW164.7 macrophage cells were stimulated with 40 µM of ADU-S100 or 10 µM of SHR1032 for the indicated time points. The amount of pTBK1, total TBK1, STING and α-tubulin was measured by western blotting.
Human and Cynomolgous PBMC’s were thawed and spun down in Lymphocyte media (ZENBIO) and resuspended in media to 1.5 x 10^6 cells/ml density. […] Human and monkey IFN-β protein concentration was measured using human IFN-β Quantikine ELISA Kits (R&D Systems) per manufacture’s protocol. Mouse IFN-β was measured using mouse IFN-β Quantikine ELISA Kits (R&D Systems) per manufacture’s protocol. Mouse TNFα, IFN-β and IL-6 in the tumor lysates and plasma was measured by Quantikine ELISA Kits (R&D Systems) per manufacture’s protocol.

THP1-STING-WT cells = test: RNA-seq differentially expressed genes; type: cell-based, human; settings: 1 µM, 4 h
Protocol: (§1) Figure 5 Cell apoptosis induced by SHR1032 in AML cell lines is independent of type I interferon. (a–d) RNA-Seq analysis of THP1-STING-R232, THP1-STING-KO and MV4-11 AML cells treated with 1 µM of SHR1032 for 4 h. […] (d) ANNEXIN V staining analysis with flow cytometry in MV4-11, MOLM-16, THP1-STING-WT and THP1-STING-KO cells. (e) Cell viability analysis by CellTiter Glo in THP1-IRFAR2-WT or -KO cells.
(§2) RNA was extracted from cells using RNeasy Plus Mini Kit (Qiagen). Library preparation with NEBNext Ultra II with PolyA selection, sequencing with NovaSeq and data analysis was performed by Admera Health, New Jersey. The De-Seq2 (version 1.14.1) was used to do the differential analysis. Gene expression levels were quantified as Fragments Per Kilobase Million (FPKM). Gene expression with FPKM value ≥ 0.5 were selected and Log2-transformed for the Differential Gene Expression (DEGs) analysis using iDEP (http://bioinformatics.sdstate.edu/idep/). DEGs were defined by p < 0.05 within each indicated paired-comparison and then used for Gene Ontology Analysis and heatmap generation. The Gene Ontology Analysis was done using Enrichr. The heatmap was created using R package gplots (version 3.1.1), function heatmap.2.

MV4-11 cells = test: RNA-seq differentially expressed genes; type: cell-based, human; settings: MV4-11, 1 µM, 4 h
Protocol: as §1, §2

human STING = biological target: T1, human STING (Homo sapiens, UniProt Q86WV6); test: Thermal shift assay; type: binding; settings: human STING protein 5 uM; ligand bound vs apo
T1 construct: made in house; host or cells: E. coli
T1 sequence (Q86WV6 155-341 limits assumed): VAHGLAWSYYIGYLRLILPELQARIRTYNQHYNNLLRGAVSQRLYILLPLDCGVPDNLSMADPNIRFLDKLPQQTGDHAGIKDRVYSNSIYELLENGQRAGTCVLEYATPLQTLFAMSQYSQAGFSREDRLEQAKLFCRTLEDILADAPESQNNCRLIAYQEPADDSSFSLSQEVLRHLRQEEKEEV
Excerpt: We sought to develop small molecule compounds with increased STING agonist activity against human STING. GSK reported a series of non-CDN small molecules, represented by compound 1[13], with good human STING agonistic activity. Based on our molecular modeling analysis, along with the reported CDN-STING crystal structures, we designed a novel series of fused tricyclic heterocycle compounds and analyzed their binding to human STING with thermal shift assays and the potency in activation of STING signaling with a reporter cellular assay (Supplementary Table S1). Thermal shift assays measure the difference between apo STING and ligand bound STING in the inflection point at which 50% of protein is thermally unfolded (ΔTm). […] The ability of compounds to activate the IRF reporter gene in the THP1 cells was also evaluated.
The melting temperature (Tm) of human STING was determined by calculating the temperature at the inflection point of the thermal melt curve generated on a Roche LightCycler 480 using 384 plate format and 465–590 nm filter set. […] Florescence was measured while ramping the plate temperature from 20 to 95 °C and the resulting data was processed using ROCHE data analysis software. Delta Tms were calculated by subtracting the Tm of untreated protein from ligand treated samples. […]

THP1-STING-R232 cells = test: CellTiter-Glo cell growth; type: cell-based, human; settings: Homo sapiens
Protocol: (a–d) AML cells were treated with STING agonists and standard of care cytarabine, and cell viability was measured by CellTiter Glo in (a) THP1-STING-R232, (b) THP1-STING-KO, (c) MV-4-11 and (d) MOLM-16. (e) MV-4-11, MOLM-16 and THP1-STING-KO cells were stimulated with 1 µM of SHR1032 for the indicated time points. The amount of pTBK1, total TBK1, pSTING, total STING and α-tubulin was measured by Western blot. pSTING phosphorylated STING. THP1 reporter cells were treated for 24 h with a total of 100 k cells and 150 ul media in each well a 96-well plate. Following the incubation, 20 µl of supernatant was transferred to an opaque 96 well ½ area plate and incubated for 30 s with 50 µl of QUANTI-Luc substrate (InvivoGen) per manufacturer’s instructions. Luminescence signal was measured using Tecan infinite M1000. EC50 values were calculated using non-linear regression analysis of GraphPad Prism. Cell growth was monitored by CellTiter-Glo Luminescent Cell Viability Assay (Promega) per manufacture’s protocol. GI50 values were calculated using non-linear regression analysis of GraphPad Prism. Cell lysates for western blotting were made in RIPA buffer (Sigma) with Halt Protease and Phosphatase Inhibitors (Thermo Scientific). Antibodies against pSTING, TBK1, pTBK1 and tubulin were purchased from Cell Signaling Technologies, and anti-STING was purchased from Protein Tech.

Thermal shift ∆Tm (human STING): 10.7 °C
GI50 (THP1-STING-R232 cells): 23 nM
Compound: CCn1nc(C)cc1C(=O)Nc1nc2cc(C(N)=O)cc(OC)c2n1CCC[C@H]1COc2cc(C(N)=O)cc3nc(NC(=O)c4cc(C)nn4CC)n1c23 [SHR1032]
monkey IFNβ production (cynomolgus PBMC): lower than that with that of ADU-S100, but still detectable
Genes differentially expressed: Down-expressed (THP1-STING-WT cells): 73
Genes differentially expressed: Up-expressed (THP1-STING-WT cells): 224
Genes differentially expressed: Down-expressed (MV4-11 cells): 216
Genes differentially expressed: Up-expressed (MV4-11 cells): 324
